Experimental data published in patent US9815851B2, “Pyrrolo carboxamides as modulators of orphan nuclear receptor RAR-related orphan receptor-gamma (RORγ, NR1F3) activity and for the treatment of chronic inflammatory and autoimmune diseases” (PHENEX PHARMACEUTICALS AG, priority 2011, dated 2017).
Read-outs that look alike come from different tables or passages of the source.

Columns and labels:
[1] = biological target: T1, RORγ ligand binding domain (LBD) (Homo sapiens, UniProt P51449); assay: TR-FRET Activity Assay (ligand sensing, RORγ-LBD / coactivator peptide interaction, LANCE); assay type: biochemical
T1 construct: made in house; host or cells: E. coli BL-21 (BL3), vector pDEST15
T1 sequence (P51449 269-508 limits assumed): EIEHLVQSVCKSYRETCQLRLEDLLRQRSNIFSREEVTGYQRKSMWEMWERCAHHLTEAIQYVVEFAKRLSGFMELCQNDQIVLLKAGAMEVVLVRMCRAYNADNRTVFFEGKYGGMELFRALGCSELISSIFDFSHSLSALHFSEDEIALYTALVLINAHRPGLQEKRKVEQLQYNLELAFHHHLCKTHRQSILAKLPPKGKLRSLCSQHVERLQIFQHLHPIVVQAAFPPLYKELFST

RORγ = biological target: T2, RORγ (UniProt P51449); assay: RORγ Gal4 Reporter Gene Assay in 293T cells (firefly and renilla luciferase); assay type: cell-based, human
T2 sequence (P51449 1-518): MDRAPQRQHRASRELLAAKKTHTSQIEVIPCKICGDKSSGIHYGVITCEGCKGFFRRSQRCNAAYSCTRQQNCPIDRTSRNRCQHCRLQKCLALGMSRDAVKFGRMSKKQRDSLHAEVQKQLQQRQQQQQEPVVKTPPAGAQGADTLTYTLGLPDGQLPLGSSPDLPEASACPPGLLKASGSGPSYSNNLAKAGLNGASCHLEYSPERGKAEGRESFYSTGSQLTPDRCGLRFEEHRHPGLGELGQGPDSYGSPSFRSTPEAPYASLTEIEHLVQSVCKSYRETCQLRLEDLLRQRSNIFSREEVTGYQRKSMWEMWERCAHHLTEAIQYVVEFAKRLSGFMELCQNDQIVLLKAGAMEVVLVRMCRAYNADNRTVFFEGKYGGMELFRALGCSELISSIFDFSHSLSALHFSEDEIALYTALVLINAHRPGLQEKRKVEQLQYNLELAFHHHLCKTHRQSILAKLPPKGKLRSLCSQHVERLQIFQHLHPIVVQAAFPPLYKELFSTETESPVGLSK

[2] = first value of the cell FRET/FF/REN, TR-FRET activity assay, read-out: pIC50 (FRET) (converted)
[3] = second value of the cell, Gal4 reporter gene assay in 293T cells, firefly luciferase
[4] = third value of the cell, Gal4 reporter gene assay in 293T cells, renilla normalised luciferase

IC50 [1, 2] [nM] | pIC50 (FF) (RORγ; [3]) | pIC50 (REN) (RORγ; [4]) | Compound | IC50 [1] [nM] | pIC50 (FF) (RORγ) | pIC50 (REN) (RORγ)
200 | 7.4 | 7.4 | Cc1c(C(=O)NC2CCOCC2)cc(-c2cc(C(C)(C)C)c3c(c2)C2(CCO3)CC2)n1CC1CCCCC1 [1/93] |  |  | 
 |  |  | COC(C)(C)CNC(=O)c1cc(-c2cc(C(C)(C)C)c3c(c2)C2(CCO3)CC2)n(CC2CCCCC2)c1C [1/97] | 251 | 6.6/7.1/7.0 | 6.6/7.1/7.0
 |  |  | Cc1c(C(=O)NCC2(O)CCOCC2)cc(-c2cc(C(C)(C)C)c3c(c2)C2(CCO3)CC2)n1CC1CCCCC1 [1/99] | 398 | 6.4/7.1/7.2 | 6.4/7.1/7.2
251 | 7.2 | 7.2 | Cc1c(C(=O)NCC2COC2)cc(-c2cc(C(C)(C)C)c3c(c2)C2(CCO3)CC2)n1CC1CCCCC1 [1/100] |  |  | 
398 | 7.3 | 7.3 | Cc1c(C(=O)NCC(C)(C)NS(C)(=O)=O)cc(-c2cc(C(C)(C)C)c3c(c2)C2(CCO3)CC2)n1CC1CCCCC1 [1/103] |  |  | 
 |  |  | Cc1c(C(=O)NCCS(C)(=O)=O)cc(-c2cc(C(C)(C)C)c3c(c2)C2(CCO3)CC2)n1CC1CCCCC1 [1/104] | 501 | 6.3/6.8/6.8 | 6.3/6.8/6.8
 |  |  | Cc1c(C(N)=O)cc(-c2cc(C(C)(C)C)c3c(c2)C2(CCO3)CC2)n1CC1CCCCC1 [1/105] | 251 | 6.6/6.5/6.5 | 6.6/6.5/6.5
12600 | < 4.7 | < 4.7 | Cc1c(C(=O)NCC(C)(C)O)cc(-c2cc(C(C)N3CCOCC3)cc(C(C)(C)C)c2)n1CC1CCCCC1 (stereo not drawn) [1/109] |  |  | 
794 | 7.3 | 7.4 | Cc1c(C(=O)NCC(C)(C)O)cc(-c2cc(C(=O)N(C)C(C)(C)C)cc(C3(C)CC3)c2)n1CC1CCCCC1 [1/110] |  |  | 
 |  |  | Cc1c(C(=O)NCC(C)(C)O)cc(-c2cc(C(=O)NC(C)(C)C)cc(C3(C)CC3)c2)n1CC1CCCCC1 [1/111] | 398 | 6.4/7.4/7.4 | 6.4/7.4/7.4
501 | 7.1 | 7.1 | Cc1c(C(=O)NCC(C)(C)O)cc(-c2cc(C(=O)NC(C)C)cc(C3(C)CC3)c2)n1CC1CCCCC1 [1/112] |  |  | 
3980 | < 4.7 | < 4.7 | Cc1c(C(=O)NCC(O)(C(F)(F)F)C(F)(F)F)cc(-c2cc(C(C)(C)C)cc(C(C)(C)C)c2)n1CC1CCCCC1 [1/113] |  |  | 
251 | 6.7 | 6.8 | Cc1c(C(=O)NC2COC2)cc(-c2cc(C(C)(C)C)cc(C(C)(C)C)c2)n1CC1CCC(C)CC1 (stereo not drawn) [1/114] |  |  | 
251 | 7.3 | 7.3 | Cc1c(C(=O)NC2COC2)cc(-c2cc(C(C)(C)C)cc(C(C)(C)C)c2)n1CC1CCCCCC1 [1/115] |  |  | 
126 | 6.9/6.9/6.9 | 6.9/6.9/6.9 | Cc1c(C(=O)NC2COC2)cc(-c2cc(C(C)(C)C)cc(C(C)(C)C)c2)n1CCC1CCCC1 [1/116] |  |  | 
501 | 6.8 | 7.0 | Cc1c(C(=O)NC2COC2)cc(-c2cc(C(C)(C)C)cc(C(C)(C)C)c2)n1CC1CC2CCC1C2 (stereo not drawn) [1/117] |  |  | 
631 | 6.5 | 6.6 | Cc1c(C(=O)NC2COC2)cc(-c2cc(C(C)(C)C)cc(C(C)(C)C)c2)n1CC1Cc2ccccc2C1 [1/118] |  |  | 
 |  |  | Cc1c(C(=O)NC2COC2)cc(-c2cc(C(C)(C)C)cc(C(C)(C)C)c2)n1CC1CCCC(C)C1 (stereo not drawn) [1/119] | 200 | 6.7/7.4/7.3 | 6.7/7.4/7.3
 |  |  | Cc1c(C(=O)NC2COC2)cc(-c2cc(OCC(C)(C)C)nc(C(C)(C)C)c2)n1CC1CCCCC1 [1/120] | 126 | 6.9/7.1/7.3 | 6.9/7.1/7.3
 |  |  | Cc1c(C(=O)NC2COC2)cc(-c2cc(OCC(C)C)nc(C(C)(C)C)c2)n1CC1CCCCC1 [1/121] | 126 | 6.9/7.0/7.2 | 6.9/7.0/7.2
501 | 6.8 | 6.8 | Cc1c(C(=O)NCC(C)(C)NS(C)(=O)=O)cc(-c2ccc(S(=O)(=O)NC(C)(C)C)c(C(C)(C)C)c2)n1CC1CCCCC1 [1/123] |  |  | 
 |  |  | Cc1c(C(=O)NCC2(O)CCOCC2)cc(-c2ccc(S(=O)(=O)NC(C)(C)C)c(C(C)(C)C)c2)n1CC1CCCCC1 [1/124] | 631 | 6.2/7.5/7.5 | 6.2/7.5/7.5
794 | 7.4 | 7.4 | Cc1c(C(=O)NCC(C)(C)C(N)=O)cc(-c2ccc(S(=O)(=O)NC(C)(C)C)c(C(C)(C)C)c2)n1CC1CCCCC1 [1/125] |  |  | 
631 | 7.1 | 7.0 | Cc1c(C(=O)NCC2COC2)cc(-c2ccc(S(=O)(=O)NC(C)(C)C)c(C(C)(C)C)c2)n1CC1CCCCC1 [1/126] |  |  | 
 |  |  | Cc1c(C(=O)NCC2(C)COC2)cc(-c2ccc(S(=O)(=O)NC(C)(C)C)c(C(C)(C)C)c2)n1CC1CCCCC1 [1/127] | 501 | 6.3/7.5/7.4 | 6.3/7.5/7.4
1580 | 7.3 | 7.3 | Cc1c(C(=O)NCC(C)(C)C(=O)O)cc(-c2ccc(S(=O)(=O)NC(C)(C)C)c(C(C)(C)C)c2)n1CC1CCCCC1 [1/129] |  |  | 
794 | 6.8 | 6.8 | Cc1c(C(=O)NCCS(C)(=O)=O)cc(-c2ccc(S(=O)(=O)NC(C)(C)C)c(C(C)(C)C)c2)n1CC1CCCCC1 [1/130] |  |  | 
 |  |  | Cc1c(C(=O)NC2CCOCC2)cc(-c2ccc(S(=O)(=O)NC(C)(C)C)c(C(C)(C)C)c2)n1CC1CCCCC1 [1/131] | 501 | 6.3/7.8/7.8 | 6.3/7.8/7.8
 |  |  | Cc1c(C(=O)NC2C[S+]([O-])C2)cc(-c2ccc(S(=O)(=O)NC(C)(C)C)c(C(C)(C)C)c2)n1CC1CCCCC1 (stereo not drawn) [2/1] | 794 | 6.1/6.5/6.5 | 6.1/6.5/6.5
1580 | 6.5 | 6.7 | Cc1c(C(=O)NC2C[S+]([O-])C2)cc(-c2cc(C(C)C)c3c(c2)C(C)(C)N(C(C)C)S3(=O)=O)n1CC1CCCCC1 (stereo not drawn) [2/3] |  |  | 

Compound | IC50 [1, 2] [nM] | pIC50 (FF) (RORγ; [3]) | pIC50 (REN) (RORγ; [4]) | IC50 [1] [nM] | pIC50 (FF) (RORγ) | pIC50 (REN) (RORγ)
Cc1c(C(=O)NC2CC2)cc(-c2cc(C(C)(C)C)c3c(c2)C2(CCO3)CC2)n1CC1CCCCC1 [1/92] | 200 | 7.0 | 6.9 |  |  | 
Cc1c(C(=O)NCC2CCOCC2)cc(-c2cc(C(C)(C)C)c3c(c2)C2(CCO3)CC2)n1CC1CCCCC1 [1/94] | 501 | 7.4 | 7.3 |  |  | 
Cc1c(C(=O)N[C@H]2CCOC2)cc(-c2cc(C(C)(C)C)c3c(c2)C2(CCO3)CC2)n1CC1CCCCC1 [1/95] | 158 | 7.0 | 7.1 |  |  | 
Cc1c(C(=O)N[C@@H]2CCOC2)cc(-c2cc(C(C)(C)C)c3c(c2)C2(CCO3)CC2)n1CC1CCCCC1 [1/96] | 200 | 6.7 | 6.8 |  |  | 
Cc1c(C(=O)NCC(C)(C)C(N)=O)cc(-c2cc(C(C)(C)C)c3c(c2)C2(CCO3)CC2)n1CC1CCCCC1 [1/98] | 631 | 7.3 | 7.3 |  |  | 
Cc1c(C(=O)NCC2(C)COC2)cc(-c2cc(C(C)(C)C)c3c(c2)C2(CCO3)CC2)n1CC1CCCCC1 [1/101] | 251 | 7.2 | 7.2 |  |  | 
Cc1c(C(=O)NCC2CC2)cc(-c2cc(C(C)(C)C)c3c(c2)C2(CCO3)CC2)n1CC1CCCCC1 [1/102] | 501 | 6.4 | 6.4 |  |  | 
Cc1c(C(=O)NC2COC2)cc(-c2cc(CN3CCOCC3)cc(C(C)(C)C)c2)n1CC1CCCCC1 [1/108] | 7940 | 7.2 | 7.3 |  |  | 
Cc1c(C(=O)NC2COC2)cc(-c2cc(C(C)(C)C)nc(C(C)(C)C)c2)n1CC1CCCCC1 [1/122] | 158 | 7.0 | 7.0 |  |  | 
Cc1c(C(=O)NCCCCCO)cc(-c2ccc(S(=O)(=O)NC(C)(C)C)c(C(C)(C)C)c2)n1CC1CCCCC1 [1/128] | 501 | 7.2 | 7.2 |  |  | 
Cc1c(C(=O)NC2COC2)cc(-c2cc(C(F)(F)F)c3c(c2)C2(CCO3)CC2)n1CC1CCCCC1 [1/132] | 631 | 6.8 | 6.8 |  |  | 
Cc1c(C(=O)NC2COC2)cc(-c2cc(C(=O)N(C)C(C)(C)C)nc(C(C)(C)C)c2)n1CC1CCCCC1 [6/1] | 2000 | 6.7 | 6.7 |  |  | 
